# In PMC11481871, “Discovery of GuaB inhibitors with efficacy against Acinetobacter baumannii infection” (mBio, 2024):
# Tests used:
# [1] = In vitro metabolism in mouse hepatocytes; type: in vitro ADME
# Experimental: The incubation of G2 and G1 with cryopreserved mouse hepatocytes was conducted according to the standard in-house protocol. Cryopreserved hepatocytes were thawed using pre-warmed InVitroGRO HT thawing medium in 50 mL centrifuge tubes. The tubes were centrifuged for 3 min at 50 × g, and the supernatants were discarded. Cells were resuspended with 50 mL of pre-warmed Dulbecco’s modified eagle medium (DMEM) by gently inverting the tube several times. The tubes were centrifuged for 3 min at 50 × g, and the supernatants were discarded. Cells were brought up in 5.0 mL of pre-warmed DMEM incubation medium. The total cell counts and the number of viable cells were determined by the trypan blue exclusion method. Incubations were carried out in 20 mL scintillation vials containing 1.0 mL of hepatocyte suspension (approximately 1.3 × 10^6 cells/mL). The mouse hepatocytes were pre-incubated with or without 1 mM ABT or 4-MP for 15 min. Vials were spiked with G2 or G1 as a DMSO stock solution to a final concentration of 5 µM G2 or G1 and a final DMSO concentration of 0.1%. The scintillation vials were placed on an orbital shaker rotating at 16 rpm in a humidified incubator at 37°C, 5% CO2. The reaction was quenched with 4 mL of acetonitrile at 0 or 3 h. The hepatocyte samples were protein precipitated with 4 volumes of acetonitrile and centrifuged at 2,000 × g for 5 min. The resulting supernatant was reduced to a dry residue and reconstituted with 350 µL water:acetonitrile (2/1; vol/vol). All samples were analyzed by LC-MS/MS system.
# Liquid chromatography (LC) equipment consisted of a CBM 20A Communications Module, NexeraX2 LC 30AD pumps, NexeraX2 SIL 30AC autosampler, CTO Prominence Column Oven from Shimadzu (Columbia, MD), and a 1290 Infinity DAD ultraviolet (UV) detector with a 60 mm flow cell from Agilent Technologies (Waldbronn, Germany). The LC column was an EVO C18 (1.9 µm, 2.1 × 100 mm) from Phenomenex. Mobile phase A was water with 0.1% formic acid and mobile phase B was acetonitrile with 0.1% formic acid. The flow rate was 400 µL/min and the injection volume was 10 µL. Column temperature was 40°C. Mass spectrometry was performed using a 5600 QTRAP mass spectrometer equipped with a TurboIonSpray from Applied Biosystems (Redwood City, CA). Various tandem mass spectrometry (MS/MS) functionalities were used for analysis, which included data-dependent time-of-flight (TOF) scans in a positive ion electrospray mode. The extracted ion chromatography traces were obtained following analysis of mouse hepatocyte incubations and were used to quantify the metabolites.
# [2] = test system: carbapenem-resistant A. baumannii clinical isolates; test: microbe, parasite or virus in culture; type: cell-based; conditions: Acinetobacter baumannii
SMILES,clearance in mouse hepatocytes [1],metabolism inhibited by ABT ([1]; 1 mM ABT),MIC50 [2],MIC90 [2],metabolism inhibited by ABT and 4-MP ([1]; 1-aminobenzotriazole (ABT) and 4-methylpyrazole (4-MP))
"C[C@H](Nc1ccc2ncc3c(c2c1)CCOC3)C(=O)Nc1ccc(Cl)nc1 [G1, (2S)-N-(6-chloro-3-pyridyl)-2-(2,4-dihydro-1H-pyrano[3,4-c]quinolin-9 ylamino)propanamide]",high clearance,39%,3.1 µM,8 µM,
"C[C@H](Nc1ccc2ncc(CO)cc2c1)C(=O)Nc1ccc(Cl)c(N(C)C)c1 [G2, (2S)-N-[4-chloro-3-(dimethylamino)phenyl]-2-[[3-(hydroxymethyl)-6-quinolyl]amino]propanamide]",high clearance,,6.25 µM,16 µM,38%
